Experimental data taken from patent publication US11584714B2 (priority 2018, dated 2023).
Counter-ions that a name gives are not always drawn. Like-named read-outs stand apart in the source and are kept apart here.

Tests used:
Assay type in all cases: biochemical
[1] = tested on: Lectin Pathway; assay: Lectin pathway activation assay in human serum (mannan-coated ELISA, C3c detection); details: 1% human serum
[2] = target: human α-thrombin (Homo sapiens (Human), UniProt P00734); assay: Enzymatic assay for thrombin (Boc-VPR-AMC substrate)
[3] = target: mMASP-2 (Mus musculus (Mouse), UniProt Q91WP0); assay: Enzymatic inhibition of mMASP-2; details: read-out: mMASP-2 Ki
mMASP-2, sequence (Q91WP0 20-685): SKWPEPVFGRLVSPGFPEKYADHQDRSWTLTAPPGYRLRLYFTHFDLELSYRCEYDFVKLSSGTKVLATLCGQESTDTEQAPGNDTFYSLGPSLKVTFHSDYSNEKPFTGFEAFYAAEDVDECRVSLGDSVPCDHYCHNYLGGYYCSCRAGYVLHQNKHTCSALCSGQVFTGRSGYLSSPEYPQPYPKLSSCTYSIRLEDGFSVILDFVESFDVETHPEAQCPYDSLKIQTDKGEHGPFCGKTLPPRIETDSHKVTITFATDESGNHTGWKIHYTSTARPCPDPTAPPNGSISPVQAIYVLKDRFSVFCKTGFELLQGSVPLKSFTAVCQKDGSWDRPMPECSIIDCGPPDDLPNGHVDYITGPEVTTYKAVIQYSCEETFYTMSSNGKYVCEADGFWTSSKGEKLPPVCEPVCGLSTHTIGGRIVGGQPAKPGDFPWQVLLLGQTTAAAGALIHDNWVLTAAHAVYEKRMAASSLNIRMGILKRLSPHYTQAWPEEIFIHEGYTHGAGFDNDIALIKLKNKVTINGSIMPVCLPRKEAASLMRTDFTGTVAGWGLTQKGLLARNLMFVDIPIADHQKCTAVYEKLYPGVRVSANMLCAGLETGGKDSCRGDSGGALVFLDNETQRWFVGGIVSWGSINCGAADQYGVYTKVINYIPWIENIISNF

[4] = target: MASP-2 (CCP1-CCP2-SP) (Homo sapiens (Human), UniProt O00187); assay: biochemical; details: for Ki: read-out: MASP-2 Ki
MASP-2 (CCP1-CCP2-SP), sequence (O00187 445-686): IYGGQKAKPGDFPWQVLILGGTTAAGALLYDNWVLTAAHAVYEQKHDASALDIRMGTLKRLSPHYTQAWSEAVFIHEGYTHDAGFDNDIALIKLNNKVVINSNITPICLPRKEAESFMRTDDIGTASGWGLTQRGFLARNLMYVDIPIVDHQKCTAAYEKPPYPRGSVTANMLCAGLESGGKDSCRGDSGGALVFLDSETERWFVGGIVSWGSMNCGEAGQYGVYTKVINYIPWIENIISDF

[5] = selectivity for MASP-2 inhibition versus thrombin
[6] = MASP-2 inhibition versus thrombin

Row | SMILES | IC50 [1] [µM] | Ki ([2]; Thrombin Ki (μM)) [µM] | Ki [3] [µM] | Ki [4] [µM] | MASP-2 vs. thrombin selectivity [4, 5] | Ki ([2]; read-out: Thrombin Ki) [µM] | MASP-2 vs. thrombin selectivity [4, 6]
1 | Cc1nc(N)ccc1CNC(=O)[C@H](C)NC(=O)[C@H]1C[C@H](Cc2cccc(Br)c2)CN1 [compound 1452, (2R,4S)—N—((S)-1-(((6-Amino-2-methylpyridin-3-yl)methyl)amino)-1-oxopropan-2-yl)-4-(3-bromobenzyl)pyrrolidine-2-carboxamide Dihydrochloride] | 0.5 to 5 | 0.5 to 2.5 | < 0.5 | < 0.5 | **** (≥100-fold) |  | 
2 | Cc1nc(N)ccc1CNC(=O)[C@H](C)NC(=O)[C@H]1C[C@H](Cc2ccc(Br)cc2)CN1 [compound 1350, (2R,4S)—N—((S)-1-(((6-Amino-2-methylpyridin-3-yl)methyl)amino)-1-oxopropan-2-yl)-4-(4-bromobenzyl)pyrrolidine-2-carboxamide Dihydrochloride] | 0.5 to 5 | 2.5 to 10 | < 0.5 | < 0.5 | **** (≥100-fold) |  | 
3 | C[C@H](NC(=O)[C@H](N)CCc1ccccc1)C(=O)NCc1ccc2c(N)ncnc2c1 [compound 1060, (R)-2-Amino-N—((S)-1-(((4-aminoquinazolin-7-yl)methyl)amino)-1-oxopropan-2-yl)-4-phenylbutanamide Dihydrochloride] | > 50 |  | > 25 |  |  | > 25 | *** (25 to 100-fold)
4 | Cc1cc(Cl)cc(CNC(=O)[C@H](C)NC(=O)[C@H]2C[C@H](Cc3ccc(Cl)s3)CN2)c1O [compound 1456, (2R,4R)—N—((S)-1-((5-Chloro-2-hydroxy-3-methylbenzyl)amino)-1-oxopropan-2-yl)-4-((5-chlorothiophen-2-yl)methyl)pyrrolidine-2-carboxamide Dihydrochloride] | 5 to 50 |  | 0.5 to 2.5 | < 0.5 |  | > 25 | 
5 | Cc1cccc(C[C@@H]2CN[C@@H](C(=O)N[C@@H](C)C(=O)NCc3ccc(N)nc3C)C2)c1 [compound 1337, (2R,4S)—N—((S)-1-(((6-amino-2-methylpyridin-3-yl)methyl)amino)-1-oxopropan-2-yl)-4-(3-methylbenzyl)pyrrolidine-2-carboxamide dihydrochloride] | 0.5 to 5 | 0.5 to 2.5 | < 0.5 | < 0.5 | **** (≥100-fold) |  | 
6 | C[C@H](NC(=O)[C@H]1C[C@H](Cc2ccc(C3CCC3)cc2)CN1)C(=O)NCc1cnc2[nH]cc(Cl)c2c1 [compound 1378, (2R,4S)—N—((S)-1-(((3-Chloro-1H-pyrrolo[2,3-b]pyridin-5-yl)methyl)amino)-1-oxopropan-2-yl)-4-(4-cyclobutylbenzyl)pyrrolidine-2-carboxamide Di-trifluoroacetate salt] | 0.5 to 5 | 0.5 to 2.5 | < 0.5 | < 0.5 | * (≥1.0 to <5.0-fold) |  | 
7 | C[C@H](NC(=O)[C@H]1C[C@H](Cc2ccccc2)CN1)C(=O)NCc1cnc2c(c1)c(Cl)cn2C [compound 1450, (2R,4S)-4-Benzyl-N-((S)-1-(((3-chloro-1-methyl-1H-pyrrolo[2,3-b]pyridin-5-yl)methyl)amino)-1-oxopropan-2-yl)pyrrolidine-2-carboxamide Dihydrochloride] | 0.05 to 0.5 |  | < 0.5 | < 0.5 | **** (≥100-fold) |  | 
8 | C[C@H](NC(=O)[C@H](N)CCc1ccccc1)C(=O)NCCc1ccc(N)nc1 [compound 1015, (R)-2-Amino-N—((S)-1-((2-(6-aminopyridin-3-yl)ethyl)amino)-1-oxopropan-2-yl)-4-phenylbutanamide Dihydrochloride] | 5 to 50 |  | < 25 |  |  | > 25 | 
9 | Cc1nc(N)ccc1CNC(=O)C(C)NC(=O)[C@H]1C[C@H](c2cccc(-c3ccccc3)c2)CN1 (stereo in doubt) [compound 1360, (2R,4R)-4-([1,1′-Biphenyl]-3-yl)-N—((R)-1-(((6-amino-2-methylpyridin-3-yl)methyl)amino)-1-oxopropan-2-yl)pyrrolidine-2-carboxamide Di-trifluoroacetate salt] | 0.05 to 0.5 |  | < 0.5 |  |  | > 25 | 
10 | C[C@H](NC(=O)[C@H](N)C1Cc2ccccc2C1)C(=O)NCc1ccc2c(N)nccc2c1 [compound 1088, (S)-2-((R)-2-Amino-2-(2,3-dihydro-1H-inden-2-yl)acetamido)-N-((1-aminoisoquinolin-6-yl)methyl)propanamide Dihydrochloride] | 0.05 to 0.5 |  | < 0.5 | < 0.5 |  |  | 
11 | C[C@H](NC(=O)[C@H](N)CCc1ccccc1)C(=O)NCCc1ccnc(N)c1 [compound 1016, (R)-2-Amino-N—((S)-1-((2-(2-aminopyridin-4-yl)ethyl)amino)-1-oxopropan-2-yl)-4-phenylbutanamide Dihydrochloride] | 5 to 50 |  | < 25 |  |  | > 25 | 
12 | C[C@H](NC(=O)[C@H](N)C1Cc2ccccc2C1)C(=O)NCc1ccc2nc(N)ccc2c1 [compound 1091] | 5 to 50 |  | < 0.5 |  |  | > 25 | 
13 | Cc1nc(N)ccc1CNC(=O)[C@H](C)NC(=O)[C@H]1C[C@H](Cc2ccc(-c3ccc(F)cc3C#N)cc2)CN1 [compound 1396, (2R,4S)—N—((S)-1-(((6-Amino-2-methylpyridin-3-yl)methyl)amino)-1-oxopropan-2-yl)-4-((2′-cyano-4′-fluoro-[1,1′-biphenyl]-4-yl)methyl)pyrrolidine-2-carboxamide] | 0.5 to 5 |  | < 0.5 |  |  | > 25 | 
14 | C[C@@H](C(=O)NCc1ccc2c(N)nccc2c1)N(C)C(=O)[C@H](N)CCc1cccc(C(F)(F)F)c1 [compound 1139, (R)-2-Amino-N—((S)-1-(((1-aminoisoquinolin-6-yl)methyl)amino)-1-oxopropan-2-yl)-N-methyl-4-(3-(trifluoromethyl)phenyl)butanamide Dihydrochloride] | 5 to 50 |  | < 10 | < 0.5 |  |  | 
15 | N=C(N)c1ccc(CNC(=O)[C@@H]2CCN2C(=O)[C@H](NCC(=O)O)C2Cc3ccccc3C2)cc1 [compound 1129] | 0.5 to 5 |  |  | < 0.5 |  | < 0.5 | −− (less than 1.0-fold)
16 | C[C@H](NC(=O)[C@H](NCC(=O)O)C1CCCCC1)C(=O)NCc1ccc(C(=N)N)cc1 [compound 1094] | 5 to 50 |  |  | < 0.5 |  | < 0.5 | −− (less than 1.0-fold)
17 | Cc1nc(N)ccc1CNC(=O)[C@H](C)NC(=O)C1=CC(c2ccccc2)C2=C(CC(C)(C)CC2=O)N1 (stereo partly drawn) [compound 1388, N-((S)-1-(((6-Amino-2-methylpyridin-3-yl)methyl)amino)-1-oxopropan-2-yl)-7,7-dimethyl-5-oxo-4-phenyl-1,4,5,6,7,8-hexahydroquinoline-2-carboxamide] | < 0.05 |  | < 0.5 |  |  | > 25 | 
18 | N=C(N)c1ccc(CNC(=O)[C@@H]2CCN2C(=O)[C@H](N)CCCc2ccccc2)cc1 [compound 1069] | 0.5 to 5 |  |  | < 0.5 |  | < 0.5 | −− (less than 1.0-fold)
19 | N=C(N)c1ccc(CNC(=O)[C@@H]2CCN2C(=O)[C@@H](CCCc2ccccc2)NCC(=O)O)cc1 [compound 1131] | 0.5 to 5 |  |  | < 0.5 |  | < 0.5 | −− (less than 1.0-fold)
